Legend:
[1] = system: syngenic and transgenic rats; assay: Liver regeneration after partial hepatectomy (liver weight, PCNA labeling index, thymidine incorporation); assay type: in vivo, rat; settings: for stimulation of DNA synthesis (thymidine incorporation): 25 mg/kg 20 h and 4 h before; for PCNA-positive hepatocytes: repeated experiment
Method: FIGS. 5a–5b. Liver weight (FIG. 5a) and PCNA labeling index (FIG. 5b) in syngenic and transgenic rats after partial hepatectomy and methylspermidine. Three to five animals in each group. *p<0.05, ***p<0.001 as compared with preoperative values. Md-spd, methylspermidine.
FIG. 10. Effect of polyamine analogues on thymidine incorporation in 24-h regenerating livers of SSAT transgenic rats. […] Ten μCi of tritiated thymidine was given 30 min before sacrifice. Three to four animals in each group.
The production of transgenic Wistar rats (UKUR30) and mice (UKU181) harboring metallothionein-SSAT fusion gene (Suppola, S., Pietilä, M., Parkkinen, J. J., Korhonen, V. P., Alhonen, L., Halmekytö, M., Porter, C. W., and Jänne, J. (1999) Biochem. J. 338, 311–316) has been described earlier (Alhonen, L., Parkkinen, J. J., Keinänen, T., Sinervirta, R., Herzig, K. H., and Jänne, J. (2000) Proc. Natl. Acad. Sci. U.S.A. 97, 8290–8295; Lukkarinen, J., Gröhn, O., Sinervirta, R., Järvinen, A., Kauppinen, R. A., Jänne, J., and Alhonen, L. (1997) Stroke 28, 639–645). Partial hepatectomy was carried out according to the original method of Higgins and Anderson (Higgins, G. H., and Anderson, R. M. (1931) Arch. Pathol. 12, 186–202). Treatments before partial hepatectomy and the determination of DNA synthesis were carried out as in (Räsänen, T. L., Alhonen, L., Sinervirta, R., Keinänen, T., Herzig, K. H., Suppola, S., Khomutov, A. R., Vepsäläinen, J., and Jänne, J. (2002) J. Biol. Chem. 277, 39867–39872). […] The animals were sacrificed 24 h after the second MDL72527 injection and liver pieces were frozen in liquid nitrogen, homogenized in buffer (25 mM Tris-HCl pH 7.4, 0.1 mM EDTA, 1 mM DTT). An aliquot of the homogenates was used for the polyamine assays. The homogenates were centrifuged (at 13 000×g, for 30 min, at 4° C.) and the supernatants were used for the enzyme activity assays. The Institutional Animal Care and Use Committee of the University of Kuopio and by the Provincial Government approved animal experiments.
PCNA was detected from formalin-fixed paraffin-embedded tissue section as described in detail earlier (Alhonen, L., Räsänen, T. L., Sinervirta, R., Parkkinen, J. J., Korhonen, V. P., Pietilä, M., and Jänne, J. (2002) Biochem. J. 362, 149–15).
PCNA was used as an indicator of proliferative activity during liver regeneration. Immunohistochemical detection of PCNA is a convenient and commonly used method to grade proliferative activity in various tissues. PCNA expression is closely correlated with the S-phase of the cell cycle (17). FIG. 5b depicts PCNA labeling index before partial hepatectomy and at 24 h postoperatively in syngenic and transgenic rats without or with methylspermidine treatment. In resting liver, only about 1% of the hepatocytes were PCNA-positive. In syngenic animals, the number of PCNA-positive cells increased sharply to over 30% at 24 h after the operation whereas in transgenic animals the number of positive cells remained at the low preoperative level at this time point (FIG. 5b). […] The experiment was repeated with other groups of syngenic and transgenic rats. In this experiment, PCNA-positive hepatocytes accounted for 0.5±0.1% in resting syngenic liver. The number of positive cells rose to 10.7±3.5% at 24 h postoperatively without the analogue (p<0.001) and to 9.8±1.5% with the analogue (p<0.001). The corresponding figures for the transgenic animals were 0.20±0.0 before the operation, 0.42±0.24% at 24 h postoperatively without methylspermidine and 25.9±4.9% with methylspermidine (p<0.001). It thus appears that the analogue completely reversed the proliferative block in transgenic livers.
Liver regeneration could be restored by a prior administration of α-methylspermidine (Räsänen, T. L., Alhonen, L., Sinervirta, R., Keinänen, T., Herzig, K. H., Suppola, S., Khomutov, A. R., Vepsäläinen, J., and Jänne, J. (2002) J. Biol. Chem. 277, 39867–39872). […]

MT-SSAT transgenic rats = assay: Zinc-induced pancreatitis, prevention by pretreatment with analogue (plasma α-amylase, pancreatic histology); assay type: in vivo, rat; design: key to Histological scoring (0 to 4): Edema / Histological scoring (0 to 4): Inflammation: 0 (absent); 1 (minimal); 4 (maximal); settings: for Histological scoring (0 to 4): Edema / Histological scoring (0 to 4): Inflammation / Histological scoring (0 to 4): Necrosis / Histological scoring (0 to 4): Vacuolization: Zn; for Plasma α-amylase activity / acinar necrosis (pancreatic histology): transgenic rats; for Plasma α-amylase activity: zinc 10 mg/kg; for acinar necrosis (pancreatic histology): zinc
Method: FIG. 2. Plasma α-amylase activity in syngenic and transgenic rats after zinc and methylspermidine. The animals were treated as in FIG. 1. Six to eight animals in each group. *p<0.05 as compared with zinc-treated animals. ***p<0.001 as compared with untreated animals. Me-spd, methylspermidine.
FIGS. 3a–3d. Histology of pancreas of transgenic rats after zinc and methylspermidine. The animals were treated as in FIGS. 1a–1d. Magnification ×125. […] The animals received zinc (10 mg/kg) 24 h before sacrifice without (FIG. 3b) or with methylspermidine (50 mg/kg) either as single dose 4 h before zinc (FIG. 3c) or as two doses 20 h and 4 h before zinc (FIG. 3d).
Formalin-fixed pancreatic specimens were embedded in paraffin, cut into 5-μm-thick slices, and stained with hematoxylin/eosin. The stained sections were coded and scored by the participating gastroenterologist (K.-H. H.) according to the method of Niederau et al. (Niederau, C., Liddle, R. A., Ferrell, L. D., and Grendell, J. H. (1986) J. Clin. Invest. 78, 1056–1063).
FIG. 3 depicts pancreatic histology in transgenic animals after saline (FIG. 3a), after zinc alone (FIG. 3b), after zinc and single dose of the analogue (FIG. 3c) and after zinc and two doses of the analogue (FIG. 3d). The acinar structure of untreated transgenic animal is entirely normal (FIG. 3a) whereas zinc induced distinct pancreatitis with more than 50% of the acinar cells undergoing necrosis (FIG. 3b). […] Table A summarizes the histological scoring of pancreatic specimens from all animals. […] A single dose of the analogue administered prior to zinc reduced the extent of necrosis while after two repeated doses of the compound very little, if any, necrosis was present (Table A).
MT-SSAT (UKUR30) transgenic rats received zinc (10 mg/kg i.p.) 24 h before sacrifice either alone or in the combination with Me2SPM (25 mg/kg i.p.) administered twice 20 h and 4 h before zinc. There were three animals in each group. Plasma amylase activity was measured as a marker of pancreatitis.

[2] = SSAT transgenic rats, 24 h after partial hepatectomy
[3] = MT-SSAT transgenic rats, zinc 10 mg/kg i.p. 24 h, Me2SPM 25 mg/kg i.p. 20 h and 4 h before zinc

## CC(N)CCNCCCCN (stereo not drawn) [α-methylspermidine, 1-methylspermidine]
[1]; SSAT transgenic rats, 24 h after partial hepatectomy, 5 mg/kg 20 h and 4 h before
  thymidine incorporation (DNA synthesis): only insignificantly increased DNA synthesis
[1]; [2]
  stimulation of DNA synthesis (thymidine incorporation): about 10 fold
[1]; non-transgenic rats, 24 h after partial hepatectomy
  liver weight gain: no effect on the weight gain
[1]; syngenic rats, 24 h postoperatively with the analogue
  PCNA-positive hepatocytes: 9.8±1.5%
[1]; transgenic rats, 24 h postoperatively with methylspermidine
  PCNA-positive hepatocytes: 25.9±4.9%
[1]; syngenic livers, 24 h after partial hepatectomy
  PCNA labeling index: did not change PCNA labeling index
[1]; transgenic liver, 24 h after partial hepatectomy, from about 1%
  PCNA-positive cells: more than 40%
[1]; transgenic rats, 24 h after partial hepatectomy
  liver weight: significantly increased the organ weight
MT-SSAT transgenic rats; Sg rats, 1 × Me-spd 50 mg/kg
  Histological scoring (0 to 4): Edema: 1
  Histological scoring (0 to 4): Inflammation: 1
  Histological scoring (0 to 4): Necrosis: 0 (0, 0–5%)
  Histological scoring (0 to 4): Vacuolization: 0 (0, 0–5%)
MT-SSAT transgenic rats; Sg rats, 2 × Me-spd 50 mg/kg
  Histological scoring (0 to 4): Edema: 1
  Histological scoring (0 to 4): Inflammation: 0
  Histological scoring (0 to 4): Necrosis: 0 (0, 0–5%)
  Histological scoring (0 to 4): Vacuolization: 0 (0, 0–5%)
MT-SSAT transgenic rats; Tg rats, 1 × Me-spd 50 mg/kg
  Histological scoring (0 to 4): Edema: 1
  Histological scoring (0 to 4): Inflammation: 1
  Histological scoring (0 to 4): Necrosis: 2 (2, 15–35%)
  Histological scoring (0 to 4): Vacuolization: 0 (0, 0–5%)
MT-SSAT transgenic rats; Tg rats, 2 × Me-spd 50 mg/kg
  Histological scoring (0 to 4): Edema: 1
  Histological scoring (0 to 4): Inflammation: 1
  Histological scoring (0 to 4): Necrosis: 0–1
  Histological scoring (0 to 4): Vacuolization: 1 (1, 5–15%)
MT-SSAT transgenic rats; single dose 50 mg/kg 4 h before zinc
  Plasma α-amylase activity: decreased after a single dose
MT-SSAT transgenic rats; two doses 50 mg/kg 20 h and 4 h before zinc
  Plasma α-amylase activity: fully normalized after two repeated doses
MT-SSAT transgenic rats; single dose before zinc
  acinar necrosis (pancreatic histology): very little necrosis was present
MT-SSAT transgenic rats; two doses before zinc
  acinar necrosis (pancreatic histology): none after two doses

## CC(N)CCNCCCCNCCC(C)N (stereo not drawn) [bis-α-methylspermine, 1,12-dimethylspermine]
[1]; [2]
  stimulation of DNA synthesis (thymidine incorporation): about 10 fold
MT-SSAT transgenic rats; [3]
  Pancreatic histology: modest edema
  plasma amylase: 2744 ± 837
MT-SSAT transgenic rats; rats with depleted polyamine pools, 25 mg/kg 2 injections i.p. 20/4 hours prior to zinc
  prevention of pancreatitis: prevents pancreatitis

Reference: patent publication US7202280B2, “Methods for the treatment and prevention of pancreatitis and for induction of liver regeneration” (priority 2002, dated 2007)
